Measurements published in US9790200B2, “Dihydroquinoline pyrazolyl compounds” (Hoffmann-La Roche Inc., priority 2015, dated 2017).

Assays:
human CYP11B1 = molecular target: T1, human CYP11B1 (Homo sapiens, UniProt P15538); assay: G-402 cellular enzyme assay, human CYP11B1 (cortisol release, HTRF); format: cell-based; conditions: G-402 cells, 1 μM Deoxycortisol
T1 construct: The expression plasmids contains the ORF for either human/cyno CYP11B1 or CYP11B2; expressed in transfected cells
T1 sequence (P15538 25-503): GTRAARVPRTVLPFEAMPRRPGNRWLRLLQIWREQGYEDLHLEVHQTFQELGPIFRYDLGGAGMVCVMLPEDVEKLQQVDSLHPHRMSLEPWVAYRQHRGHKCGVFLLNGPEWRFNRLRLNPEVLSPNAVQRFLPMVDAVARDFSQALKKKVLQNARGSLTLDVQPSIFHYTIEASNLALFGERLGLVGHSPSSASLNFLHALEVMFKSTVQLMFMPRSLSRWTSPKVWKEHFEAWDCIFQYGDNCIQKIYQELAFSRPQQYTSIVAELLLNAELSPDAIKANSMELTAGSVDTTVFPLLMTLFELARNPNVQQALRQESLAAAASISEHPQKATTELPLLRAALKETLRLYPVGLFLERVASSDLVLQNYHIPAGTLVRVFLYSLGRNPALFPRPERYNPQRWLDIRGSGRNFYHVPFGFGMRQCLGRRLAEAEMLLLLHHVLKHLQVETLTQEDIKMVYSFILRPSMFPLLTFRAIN
Text: Herein we identified the use of the G-402 cell line as a host cell to ectopically express (transiently or stably) enzymes of the CYP11 family. Specifically we developed stable G-402 cells expressing ectopically human CYP11B1, human CYP11B2, human CYP11A1, cynmolgus CYP11B1 or cynomolgus CYP11B2 enzyme activity. Importantly the identified cell line G-402 expresses co-factors (adrenodoxin and adrenodoxin reductase) important for the activity of the CYP11 family and no relevant enzyme activity of the CYP11 family (in comparison to H295R cells) was detected in these cells. Therefore the G-402 cell line is uniquely suited as a host cell for the ectopic expression of enzymes from the CYP11 family.
G-402 cells can be obtained from ATCC (CRL-1440) and were originally derived from a renal leiomyoblastoma.
The expression plasmids contains the ORF for either human/cyno CYP11B1 or CYP11B2 under the control of a suitable promoter (CMV-promoter) and a suitable resistance marker (neomycin). […] Individual cell-clones are then selected and assessed for displaying the desired enzymatic activity using 11-Deoxycorticosterone (Cyp11B2) or 11-Deoxycortisol (Cyp11B1) as a substrate. […]
[formula] wherein, A is the maximum y value, B is the EC50 factor determined using XLFit, C is the minimum y value and D is the slope value. […]

[1] = tested on: rat model of chronic kidney disease; conditions: cited from earlier work; for plasma aldosterone: FAD286: 4 weeks of treatment, spironolactone: 4 and 8 weeks of treatment; for angiotensin II and salt-stimulated PAI-1 mRNA expression in the aorta and the heart / renal effects of angiotensin II and high salt (albuminuria, azotemia, renovascular hypertrophy, glomerular injury, PAI-1, osteopontin mRNA, tubulointerstitial fibrosis): rat, in vivo
[2] = tested on: rats with experimental heart failure; conditions: rat, in vivo; cited from earlier work
[3] = tested on: patients with primary aldosteronism; conditions: cited from earlier work

SMILES	plasma aldosterone [1]	angiotensin II and salt-stimulated PAI-1 mRNA expression in the aorta and the heart [1]	renal effects of angiotensin II and high salt (albuminuria, azotemia, renovascular hypertrophy, glomerular injury, PAI-1, osteopontin mRNA, tubulointerstitial fibrosis) [1]	further results
CN1C(=O)CCc2c1ccc(-c1n[nH]cc1COC1CN(C(=O)c3cnn(C)c3)C1)c2F [Example 66, 5-Fluoro-1-methyl-6-[4-[[1-(1-methylpyrazole-4-carbonyl)azetidin-3-yl]oxymethyl]-1H-pyrazol-3-yl]-3,4-dihydroquinolin-2-one]	–	–	–	EC50 (human CYP11B1): > 30 nM
N#Cc1ccc(C2CCCc3cncn32)cc1 (centres unmarked) [FAD286]	reduced	not	prevented these renal effects	blood pressure and cardiovascular function and structure [2]: improved
N#Cc1ccc([C@H]2CCc3cncn32)c(F)c1 [LCI699]	–	–	–	blood pressure ([3]; human, in vivo): mildly decreased; hypokalemia ([3]; human, in vivo): corrected; circulating aldosterone levels ([3]; orally active): significantly lower
CC(=O)S[C@@H]1CC2=CC(=O)CC[C@]2(C)[C@H]2CC[C@@]3(C)[C@@H](CC[C@@]34CCC(=O)O4)[C@H]12 [spironolactone]	increased	enhanced	prevented these renal effects	–
